This experiment has as its system 186277-243-T-J2-PDC multi-cell spheroid viability. The experiment is described as follows: Anticancer human tumor 186277-243-T-J2-PDC patient-derived colon adenocarcinoma cell line growth inhibition [PI3K]. To be noted: for viability, T/C: stronger effect = lower value. In a few lines:
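We assembled tumor spheroids that included a stromal compartment of HUVEC and MSCs, then exposed them to targeted agents alone and together with PI3K pathway inhibitors. Concentration series descended by half-log from clinically achievable Cmax levels. Viability served as the endpoint.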

[1] abbreviates: curve of first compound, second compound 0.0316 µM.
The mark [2] stands for this setting: curve of first compound, second compound 0.1 µM.
Where [3] appears, read: curve of first compound, second compound 0.316 µM.
Where [4] appears, read: curve of first compound, second compound 1 µM.
[5] abbreviates: curve of first compound, second compound 3.16 µM.
Where [6] appears, read: curve of first compound, second compound 10 µM.
[7] abbreviates: second compound 0.0316 µM, first compound 0.0316 µM.
[8] abbreviates: second compound 0.0316 µM, first compound 0.1 µM.
Setting [9] is: second compound 0.1 µM, first compound 0.0316 µM.
Where [10] appears, read: second compound 0.1 µM, first compound 0.1 µM.
The mark [11] stands for this setting: second compound 0.316 µM, first compound 0.0316 µM.
Setting [12] is: second compound 0.316 µM, first compound 0.1 µM.
Setting [13] is: second compound 1 µM, first compound 0.0316 µM.
[14] abbreviates: second compound 1 µM, first compound 0.1 µM.
Where [15] appears, read: second compound 3.16 µM, first compound 0.0316 µM.
Where [16] appears, read: second compound 3.16 µM, first compound 0.1 µM.
[17] abbreviates: second compound 10 µM, first compound 0.0316 µM.
[18] abbreviates: second compound 10 µM, first compound 0.1 µM.

Values joined by “and” are separate entries in the source; they are usually repeats but may differ in a detail not shown here. Equal values may be shown once. Where only a bound is given, the exact number is not on record here.
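Also: spheroids exposed to compounds for seven days before viability reading.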
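For viability, T/C in this document: 100% = DMSO vehicle control viability.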

For `CCCS(=O)(=O)Nc1ccc(F)c(C(=O)c2c[nH]c3ncc(-c4ccc(Cl)cc4)cc23)c1F` + CC(Nc1ncnc2nc[nH]c12)c1cc2cccc(Cl)c2c(=O)n1-c1ccccc1, the IC50 runs as follows: under setting [1], 5.69 µM; under setting [2], 5.06 µM; under setting [3], 4.97 µM; under setting [4], 5.21 µM; under setting [5], 5.3 µM; under setting [6], 5.48 µM. Also, the viability, T/C is 85.8% under setting [7]; 96.6% under setting [8]; 105% (second compound 0.0316 µM, first compound 0.316 µM); 85.6% (second compound 0.0316 µM, first compound 1 µM); 96.5% (second compound 0.0316 µM, first compound 3.16 µM); 7.89% (second compound 0.0316 µM, first compound 10 µM). Also, the viability, T/C reads like this: under setting [9], 97.5%; under setting [10], 103%; (second compound 0.1 µM, first compound 0.316 µM) 93.2%; (second compound 0.1 µM, first compound 1 µM) 77.8%; (second compound 0.1 µM, first compound 3.16 µM) 83.7%; (second compound 0.1 µM, first compound 10 µM) 7.36%. Further, the viability, T/C runs as follows: under setting [11], 97.3%; under setting [12], 109%; (second compound 0.316 µM, first compound 0.316 µM) 87%; (second compound 0.316 µM, first compound 1 µM) 94.5%; (second compound 0.316 µM, first compound 3.16 µM) 76.5%; (second compound 0.316 µM, first compound 10 µM) 10.1%. The viability, T/C under setting [13] is 86.7%; the viability, T/C under setting [14] was 98.1%; the viability, T/C (second compound 1 µM, first compound 0.316 µM) was 95.5%; the viability, T/C (second compound 1 µM, first compound 1 µM) is 94%; the viability, T/C (second compound 1 µM, first compound 3.16 µM) was 82.3%; the viability, T/C (second compound 1 µM, first compound 10 µM) was 7.72%. For the same molecule, the viability, T/C runs as follows: under setting [15], 113%; under setting [16], 94.6%; (second compound 3.16 µM, first compound 0.316 µM) 90.6%; (second compound 3.16 µM, first compound 1 µM) 91%; (second compound 3.16 µM, first compound 3.16 µM) 84.8%; (second compound 3.16 µM, first compound 10 µM) 9.36%. Besides, the viability, T/C by setting is: under setting [17], 108%; under setting [18], 104%; (second compound 10 µM, first compound 0.316 µM) 106%; (second compound 10 µM, first compound 1 µM) 105%; (second compound 10 µM, first compound 3.16 µM) 87.6%; (second compound 10 µM, first compound 10 µM) 8.89%.
For the molecule `CC(C)n1nc(-c2ccc3oc(N)nc3c2)c2c(N)ncnc21` + CC(Nc1ncnc2nc[nH]c12)c1cc2cccc(Cl)c2c(=O)n1-c1ccccc1, the IC50 under setting [1] came to 0.0634 µM; the IC50 under setting [2] was 0.0592 µM; the IC50 under setting [3] was 0.0617 µM; the IC50 under setting [4] was found to be 0.0561 µM; the 50% inhibitory concentration (IC50) under setting [5] amounted to 0.0478 µM; the IC50 under setting [6] came out at 0.0472 µM. For the same molecule, the viability, T/C (second compound 0.0316 µM, first compound 0.000316 µM) is 86.4%; the viability, T/C (second compound 0.0316 µM, first compound 0.001 µM) was 96%; the viability, T/C (second compound 0.0316 µM, first compound 0.00316 µM) was 108%; the viability, T/C (second compound 0.0316 µM, first compound 0.01 µM) was 90.2%; the viability, T/C under setting [7] is 81.5%; the viability, T/C under setting [8] was 29.2%. Further, the viability, T/C reads like this: (second compound 0.1 µM, first compound 0.000316 µM) 112%; (second compound 0.1 µM, first compound 0.001 µM) 101%; (second compound 0.1 µM, first compound 0.00316 µM) 96.7%; (second compound 0.1 µM, first compound 0.01 µM) 97.1%; under setting [9], 80.3%; under setting [10], 25.3%. Moreover, the viability, T/C is, setting by setting: (second compound 0.316 µM, first compound 0.000316 µM) 105%; (second compound 0.316 µM, first compound 0.001 µM) 103%; (second compound 0.316 µM, first compound 0.00316 µM) 89.1%; (second compound 0.316 µM, first compound 0.01 µM) 103%; under setting [11], 79.6%; under setting [12], 28.6%. For the same molecule, the viability, T/C is 96.7% (second compound 1 µM, first compound 0.000316 µM); 108% (second compound 1 µM, first compound 0.001 µM); 102% (second compound 1 µM, first compound 0.00316 µM); 96.3% (second compound 1 µM, first compound 0.01 µM); 72.5% under setting [13]; 27.4% under setting [14]. Moreover, the viability, T/C (second compound 3.16 µM, first compound 0.000316 µM) was 95%; the viability, T/C (second compound 3.16 µM, first compound 0.001 µM) is 90.8%; the viability, T/C (second compound 3.16 µM, first compound 0.00316 µM) was 95.4%; the viability, T/C (second compound 3.16 µM, first compound 0.01 µM) is 92.2%; the viability, T/C under setting [15] was 64.9%; the viability, T/C under setting [16] was 23.5%. The viability, T/C runs as follows: (second compound 10 µM, first compound 0.000316 µM) 89.7%; (second compound 10 µM, first compound 0.001 µM) 94.5%; (second compound 10 µM, first compound 0.00316 µM) 78%; (second compound 10 µM, first compound 0.01 µM) 80.5%; under setting [17], 69.7%; under setting [18], 17.6%.
Take `CC(Nc1ncnc2nc[nH]c12)c1cc2cccc(Cl)c2c(=O)n1-c1ccccc1` (stereo not given): the viability, T/C was 97.5% [middle of 8 runs] (compound 0.0316 µM); 102% [middle of 8 runs] (compound 0.1 µM); 101% [middle of 8 runs] (compound 0.316 µM); 101% [middle of 8 runs] (compound 1 µM); 98.6% [middle of 8 runs] (compound 3.16 µM); 99.5% [middle of 8 runs] (compound 10 µM). In addition, the IC50 (compound alone, run of 05/09/2023) is above 10 µM.
Consider `C=CC(=O)N1CCN(c2nc(=O)n(-c3c(C)ccnc3C(C)C)c3nc(-c4c(O)cccc4F)c(F)cc23)C(C)C1` (stereo not given), for which the viability, T/C was 98.1% [middle of 4 runs] (compound 0.0316 µM); 92.8% [middle of 4 runs] (compound 0.1 µM); 98% [middle of 4 runs] (compound 0.316 µM); 102% [middle of 4 runs] (compound 1 µM); 108% [middle of 4 runs] (compound 3.16 µM); 90.6% [middle of 4 runs] (compound 10 µM). For the setting “curve of compound”, the IC50 was above 10 µM.
Regarding `CCN1CCN(Cc2ccc(Nc3ncc(F)c(-c4cc(F)c5nc(C)n(C(C)C)c5c4)n3)nc2)CC1`, the viability, T/C (compound 0.00316 µM) was 102% [middle of 4 runs]; the viability, T/C (compound 0.01 µM) was 101% [middle of 4 runs]; the viability, T/C (compound 0.0316 µM) is 106% [middle of 4 runs]; the viability, T/C (compound 0.1 µM) is 130% [middle of 4 runs]; the viability, T/C (compound 0.316 µM) was 146% and 156% and 145% (2×); the viability, T/C (compound 1 µM) was 146% [middle of 4 runs]. Also, the IC50 (curve of compound) was above 1 µM.

As a reminder, the IC50 is the concentration that inhibits the measured activity by half. A word on the viability, T/C: it is the ratio of treated to control.

For the origin of these results see PubChem BioAssay AID1963983 (Molecular Pharmacology Branch, DTP, NCI, 2024).
